EC50 data for 1 molecule are collected here from US9598362B2, “Benzidine derivative, method for preparing same, and pharmaceutical composition containing benzidine derivative for treating liver disease caused by hepatitis C virus” (priority 2013, dated 2017).

For this assay, the system named is HCV (JFH-5aFlucm4). In words: Evaluation of anti-HCV activity 1: huh7.5.1 cells inoculated with HCV carrying renilla luciferase reporter. Particulars: Hepatitis C virus. It is filed as cell-based. On the procedure: To evaluate the anti-HCV activity of the compound represented by formula 1 of the present invention, the following experiment was performed.
The hepatoma cell line huh7.5.1 was distributed in a 12-well cell culture plate at the density of 50,000 cells/well. The cells were cultured in DMEM (Dulbecco's Modified Eagle's Medium 12800-017, GIBCO Co.) supplemented with 10% (v/v) FBS (Fetal Bovine Serum SH30406.02, Hyclone Co.) and 1% (v/v) antibiotics (penicillin/streptomycin solution SV30010, Hyclone Co.) in a 37° C. 6.0% CO2 incubator (CO2 Incubator 311, Forma Scientific Co, Lnc. USA) for 24 hours to lead cell attachment on the plate. Then, the cells were inoculated with HCV (JFH-5aFlucm4, PLoS One. 2011; 6(8):e228808.) having renilla luciferase gene as a reporter for 3 hours. Upon completion of the virus inoculation, the cell culture medium was replaced with the medium containing the compounds prepared in Examples 1˜24 at the concentration of 1 μM each. The cells were cultured in a 37° C. 6.0% CO2 incubator (CO2 Incubator 311, Forma Scientific Co, Lnc. USA) for 3 days. Three days after the infection, the cell culture medium was collected to measure the cytotoxicity in the following Experimental Example 3. The cells attached on the plate were washed with PBS (phosphate buffered saline) and then lysed by treating 100 μl of 1× passive lysis buffer (Promega, E1941). The cell lysate (10 μl) was added to renilla luciferase assay reagent (50 μl) in renilla luciferase assay system (Promega, E2820), followed by measurement of luminescence for 10 seconds using the luciferase measure program with Luminometer (GLOMAX 20/20 Luminometer, Promega). At this time, the measurement of luminescence was performed in triplicate with the groups treated with the compounds of Examples 1˜24 and the non-treated control group. The mean value was calculated and compared. The luminescence of each compound over the concentration was converted into EC50 (half maximal effective concentration) by using sigma plot program, and the results are shown in Table 2.

Where two headings read alike, the source gives them in different places.

On to `COC(=O)N[C@@H](C(=O)N1CCC[C@H]1C(=O)Nc1ccc(-c2ccc(NC(=O)[C@@H]3CCCN3C(=O)[C@H](NC(=O)OC)c3ccccc3)cc2)cc1)c1ccccc1` [Example 16, dimethyl(1S,1′S)-2,2′-((2S,2′S)-2,2′-(biphenyl-4,4′-diylbis(azandiyl))bis(oxomethylene)bis(pyrrolidine-2,1-diyl))bis(2-oxo-1-phenylethane-2,1-diyl)dicarbamate], for which the EC50 – broadly, the concentration needed to bring the measured effect to its halfway point – was under 1 nM (Huh-7.5.1) and under 1 nM (Huh-7.5.1, 72 h, read-out: EC50 grade).
